Assay results taken from patent US10246457B2, “Indazole and azaindazole Btk inhibitors” (MERCK SHARP & DOHME CORP., priority 2015, dated 2019).

What was measured:
[1] = biological target: 25P Btk enzyme (un-activated full-length Btk) (Homo sapiens (Human), UniProt Q06187); assay: 25P Btk Enzyme Activity Assay (LANCE TR-FRET); type: biochemical; conditions: un-activated Btk (25P), 25 μM ATP, 60 minute compound and enzyme incubation; read-out: Btk binding IC50 (nM) with 25 P
Protocol: Preparation of Un-Activated Btk Enzyme (25P Btk)
Un-activated full-length Btk recombinant protein was purified from baculovirus-transfected Sf21 cells. […] This protein represents the un-activated state of the Btk enzyme.
25P Btk Enzyme Activity Assay
Btk enzymatic activity was determined with the LANCE (Lanthanide Chelate Excite) TR-FRET (lime-resolved fluorescence resonance energy transfer) assay. […] To each well of a black non-binding surface Corning 384-well microplate (Corning Catalog #3820), 5 nL of compound (2000 fold dilution in final assay volume of 10 μL) was dispensed, followed by the addition of 7.5 μL of 1× kinase buffer (50 mM Hepes 7.5, 10 mM MgCl2, 0.01% Brij-35, 1 mM EGTA, 0.05% BSA and 1 mM DTT) containing 26.67 pg/μL (266.7 pM) of 25P Btk enzyme (recombinant protein from baculovirus-transfected Sf9 cells: full-length Btk; MW=79378 Da). Following a 60 minute compound and enzyme incubation, each reaction was initiated by the addition of 2.5 μL 1× kinase buffer containing 8 μM biotinylated “A5” peptide (Biotin-EQEDEPEGDYFEWLE-NH2), and 100 μM ATP. The final reaction in each well of 10 consists of 200 pM 25P Btk, 2 μM biotin-A5-peptide, and 25 μM ATP. Phosphorylation reactions were allowed to proceed for 120 minutes. Reactions were immediately quenched by the addition of 20 uL of 1× quench buffer (15 mM EDTA, 25 mM Hepes 7.3, and 0.1% Triton X-100) containing detection reagents (0.626 nM of LANCE-Eu-W1024-anti-phosphoTyrosine antibody, PerkinElmer and 86.8 nM of Streptavidin-conjugated Dylight 650, Dyomics/ThermoFisher Scientific). After 60 minutes incubation with detection reagents, reaction plates were read on a PerkinElmer EnVision plate reader using standard TR-FRET protocol. Briefly, excitation of donor molecules (Eu-chelate:anti-phospho-antibody) with a laser light source at 337 nm produces energy that can be transferred to Dylight-650 acceptor molecules if this donor:acceptor pair is within close proximity. Fluorescence intensity at both 665 nm (acceptor) and 615 nm (donor) are measured and a TR-FRET ratio calculated for each well (acceptor intensity/donor intensity). IC50 values were determined by 4 parameter robust fit of TR-FRET ratio values vs. (Log10) compound concentrations.

[2] = biological target: 100P Btk enzyme (activated full-length Btk) (Homo sapiens (Human), UniProt Q06187); assay: 100P Btk Enzyme Activity Assay (LANCE TR-FRET); type: biochemical; conditions: activated Btk (100P), 25 μM ATP, 60 minute compound and enzyme incubation; top concentration 1000 nM; read-out: Btk binding IC50 (nM) with 100 P
Protocol: Activated full-length Btk recombinant enzyme was expressed and purified in the same manner as the […] enzyme, except an auto-phosphorylation step was added to the purification scheme. […] This protein represents the activated state of the Btk enzyme. […] Btk Enzyme Activity Assay Btk enzymatic activity was determined with the LANCE (Lanthanide Chelate Excite) TR-FRET (lime-resolved fluorescence resonance energy transfer) assay. […] MW=79378 Da). […] Phosphorylation reactions were allowed to proceed for 45 minutes. […] After 60 minutes incubation with detection reagents, reaction plates were read on a PerkinElmer EnVision plate reader using standard TR-FRET protocol. Briefly, excitation of donor molecules (Eu-chelate:anti-phospho-antibody) with a laser light source at 337 nm produces energy that can be transferred to Dylight-650 acceptor molecules if this donor:acceptor pair is within close proximity. Fluorescence intensity at both 665 nm (acceptor) and 615 nm (donor) are measured and a TR-FRET ratio calculated for each well (acceptor intensity/donor intensity). […] (Log10) compound concentrations.

Sequence of 25P Btk enzyme (un-activated full-length Btk) (Q06187 whole entry): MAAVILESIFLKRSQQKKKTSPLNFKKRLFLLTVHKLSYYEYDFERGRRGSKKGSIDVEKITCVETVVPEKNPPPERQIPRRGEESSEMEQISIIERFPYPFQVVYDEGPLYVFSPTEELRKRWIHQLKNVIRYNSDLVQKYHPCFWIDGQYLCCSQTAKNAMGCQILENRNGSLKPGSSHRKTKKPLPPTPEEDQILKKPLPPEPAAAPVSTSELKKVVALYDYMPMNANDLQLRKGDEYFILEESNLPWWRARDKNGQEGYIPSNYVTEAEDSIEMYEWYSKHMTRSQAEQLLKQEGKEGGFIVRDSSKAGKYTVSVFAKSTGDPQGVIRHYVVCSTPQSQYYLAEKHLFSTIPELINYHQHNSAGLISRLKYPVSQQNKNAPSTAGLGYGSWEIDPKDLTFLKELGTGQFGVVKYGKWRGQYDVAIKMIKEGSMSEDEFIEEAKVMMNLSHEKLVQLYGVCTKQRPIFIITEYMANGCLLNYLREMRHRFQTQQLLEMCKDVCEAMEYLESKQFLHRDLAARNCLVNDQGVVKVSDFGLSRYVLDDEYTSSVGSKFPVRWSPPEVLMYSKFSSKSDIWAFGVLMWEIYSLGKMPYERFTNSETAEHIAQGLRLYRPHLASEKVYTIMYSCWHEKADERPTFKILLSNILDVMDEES
Sequence of 100P Btk enzyme (activated full-length Btk) (Q06187 whole entry): as above

With `CC(C)(C)c1cc(F)c2c(=O)n(-c3cccc(-c4cc(-c5cnn(CC(=O)O)c5)c5[nH]nc(N)c5c4)c3CO)ncc2c1` [Example 23, 2-(4-(3-amino-5-(3-(6-(tert-butyl)-8-fluoro-1-oxophthalazin-2(1H)-yl)-2-(hydroxymethyl)phenyl)-1H-indazol-7-yl)-1H-pyrazol-1-yl)acetic acid] the IC50 [1] was 0.18 nM and the IC50 [2] was 20 nM.

`CC(C)(C)c1cc(F)c2c(=O)n(-c3cccc(-c4cc(-c5cnn(C(C)(C)C(=O)O)c5)c5[nH]nc(N)c5c4)c3CO)ncc2c1` [Example 24, 2-(4-(3-amino-5-(3-(6-(tert-butyl)-8-fluoro-1-oxophthalazin-2(1H)-yl)-2-(hydroxymethyl)phenyl)-1H-indazol-7-yl)-1H-pyrazol-1-yl)-2-methylpropanoic acid] gave an IC50 [1] of 0.28 nM and an IC50 [2] of 31.5 nM.

For `CC(C)(C)c1cc(F)c2c(=O)n(-c3cccc(-c4cc(-c5cnn(C6CCOCC6)c5)c5[nH]nc(N)c5c4)c3CO)ncc2c1` [Example 25, 2-(3-(3-amino-7-(1-(tetrahydro-2H-pyran-4-yl)-1H-pyrazol-4-yl)-1H-indazol-5-yl)-2-(hydroxymethyl)phenyl)-6-(tert-butyl)-8-fluorophthalazin-1(2H)-one], the IC50 [1] was 0.18 nM and the IC50 [2] was 2.6 nM.

For `COCCn1cc(-c2cc(-c3cccc(-n4ncc5cc(C(C)(C)C)cc(F)c5c4=O)c3CO)cc3c(N)n[nH]c23)cn1` [Example 26, 2-(3-(3-amino-7-(1-(2-methoxyethyl)-1H-pyrazol-4-yl)-1H-indazol-5-yl)-2-(hydroxymethyl)phenyl)-6-(tert-butyl)-8-fluorophthalazin-1(2H)-one], the IC50 [1] was 0.096 nM and the IC50 [2] was 5.3 nM.

In the case of `Cc1nn(C)cc1-c1cc(-c2cccc(-n3ncc4cc(C(C)(C)C)cc(F)c4c3=O)c2CO)cc2c(N)n[nH]c12` [Example 27, 2-(3-(3-amino-7-(1,3-dimethyl-1H-pyrazol-4-yl)-1H-indazol-5-yl)-2-(hydroxymethyl)phenyl)-6-(tert-butyl)-8-fluorophthalazin-1(2H)-one], the IC50 [1] is reported as 0.43 nM and the IC50 [2] is reported as 69.5 nM.

With `CC(C)(C)c1cc(F)c2c(=O)n(-c3cccc(-c4cc(-c5cnn6c5CCCC6)c5[nH]nc(N)c5c4)c3CO)ncc2c1` [Example 28, 2-(3-(3-amino-7-(4,5,6,7-tetrahydropyrazolo[1,5-a]pyridin-3-yl)-1H-indazol-5-yl)-2-(hydroxymethyl)phenyl)-6-(tert-butyl)-8-fluorophthalazin-1(2H)-one] the IC50 [1] was 1.7 nM and the IC50 [2] was 360 nM.
